Experimental data: US20230192878A1, “METHODS, THERAPIES AND USES FOR TREATING CANCER” (PFIZER INC., priority 2020, published 2023)

Tests used:
[1] = test system: RPMI8226; test: Cell surface BCMA expression after GSI, concentration series; type: cell-based; settings: 24 hours
Method: (§1) Multiple myeloma cells (MM.1S, OPM2, H929, Molp8, RPMI8226) were seeded in a 96-well U bottom plate at 40,000 cells/well. Cells were incubated for 24 hours in the presence of GSI diluted in RPMI (0.1% DMSO). The following concentrations of the GSI were tested: 1000 nM, 500 nM, 100 nM, 50 nM, 25 nM, 10 nM, 5 nM, 2.5 nM, 1 nM, 0.1 nM, 0.01 nM. 24 hours later cells were collected and washed with PBS+2% FBS, followed by staining with ZombieNIR Viability Dye (Biolegend) at 1 in 500 dilution in PBS at room temperature for 20 minutes. Next, cells were washed with PBS+2% FBS and stained with anti-BCMA PE-labelled antibody (Biolegend) diluted in PBS+2% FBS for 30 minutes at 4° C. Cells were acquired on BD Flow Cytometer and analyzed using FlowJo flow cytometry analysis software. Dead cells were removed from analysis by gating on ZombieNIR negative population. BCMA mean fluorescence intensity (MFI) was plotted against GSI concentration to establish EC50.

[2] = test system: H929; test: as above; type: cell-based; settings: 24 hours
Method: as §1

[3] = test system: MM.1S; test: as above; type: cell-based; settings: 24 hours
Method: as §1

[4] = test system: OPM2; test: as above; type: cell-based; settings: 24 hours
Method: as §1

[5] = test system: Molp8; test: as above; type: cell-based; settings: 24 hours
Method: as §1

[6] = test system: MM.1S-PD-L1; test: Subcutaneous MM.1S-PD-L1 multiple myeloma mouse model; type: in vivo; settings: alone or +anti-PD-1 5 mg/kg, dosing from Day 21
Method: MM.1S multiple myeloma cells were engineered to express PD-L1 and are referred to as MM.1S-PD-L1. Pre-activated and expanded T cells (20×10^6) were administered on Day 19 after MM.1S-PDL1 tumor cell inoculation subcutaneously (SC). BCMAxCD3 bispecific (0.3 or 1 mg/kg) or negative bispecific (1 mg/kg) was administered IV on Day 21 and dosed Q7Dx3. Anti-PD-1 mAb was administered at 5 mg/kg intraperitoneally (IP) twice a week starting on Day 21. Tumor measurements were recorded 2 to 3 times a week using digital calipers. N (at study start) is 5-12 animals per group.

[7] = test system: MM.1S-Luc-PD-L1; test: Orthotopic MM.1S-Luc-PD-L1 multiple myeloma mouse model; type: in vivo, NSG mice; settings: bispecific 10 μg/kg IV once (day 21), anti-PD-1 5 mg/kg IP twice a week
Method: MM.1 S-Luc multiple myeloma cells were engineered to express PD-L1 and are referred to as MM.1S-Luc-PD-L1. MM.1S-Luc-PD-L1 cells were prepared as a single cell suspension of 5×10^6 cells for intravenous (IV) inoculation into NSG mice.
Tumor growth was monitored by luminescent imaging by intraperitoneal (IP) injection of luciferin solution in DPBS and imaged using Perkin Elmer IVIS Spectrum camera system. Animals were administered 2×10^7 expanded human T cells IV 19 days after tumor cell inoculation. Two days following T cell administration, a single dose of the BCMAxCD3 bispecific (10 μg/kg) was administered as a bolus IV injection. Anti-PD-1 antibody was administered twice a week as a bolus IP injection at 5 mg/kg for a total of 6 injections.
Tumor growth was monitored via imaging measurements collected twice weekly. Mice were imaged using the Perkin Elmer IVIS Spectrum camera system with automatic parameter determination and a maximum imaging time of 3 minutes. Living Image software was used to collect the data. Regions of Interest (ROIs) were drawn around the entire body of the mouse, excluding as much as possible of the tail. Background flux, as measured on the anesthesia manifold, is subtracted from each ROI. Tumor measurements are expressed as total flux expressed in photons/sec (p/s). Study was terminated at day 40 post tumor inoculation.

## CCC[C@H](N[C@H]1CCc2cc(F)cc(F)c2C1)C(=O)Nc1cn(C(C)(C)CNCC(C)(C)C)cn1 [GSI, nirogacestat]
[1]; RPMI8226, GSI 0.01 nM
  BCMA (-PE) MFI: 10028
[1]; RPMI8226, GSI 0.1 nM
  BCMA (-PE) MFI: 10099
[1]; RPMI8226, GSI 1 nM
  BCMA (-PE) MFI: 10483.5
[1]; RPMI8226, GSI 2.5 nM
  BCMA (-PE) MFI: 10226.5
[1]; RPMI8226, GSI 5 nM
  BCMA (-PE) MFI: 10589.5
[1]; RPMI8226, GSI 10 nM
  BCMA (-PE) MFI: 11181.5
[1]; RPMI8226, GSI 25 nM
  BCMA (-PE) MFI: 12617
[1]; RPMI8226, GSI 50 nM
  BCMA (-PE) MFI: 13190.5
[1]; RPMI8226, GSI 100 nM
  BCMA (-PE) MFI: 13416
[1]; RPMI8226, GSI 500 nM
  BCMA (-PE) MFI: 13464.5
[1]; RPMI8226, GSI 1000 nM
  BCMA (-PE) MFI: 14362
[2]; H929, GSI 0.01 nM
  BCMA (-PE) MFI: 4824.5
[2]; H929, GSI 0.1 nM
  BCMA (-PE) MFI: 5305.5
[2]; H929, GSI 1 nM
  BCMA (-PE) MFI: 8615.5
[2]; H929, GSI 2.5 nM
  BCMA (-PE) MFI: 10344.5
[2]; H929, GSI 5 nM
  BCMA (-PE) MFI: 13226
[2]; H929, GSI 10 nM
  BCMA (-PE) MFI: 15670
[2]; H929, GSI 25 nM
  BCMA (-PE) MFI: 18445.5
[2]; H929, GSI 50 nM
  BCMA (-PE) MFI: 17424.5
[2]; H929, GSI 100 nM
  BCMA (-PE) MFI: 19455.5
[2]; H929, GSI 500 nM
  BCMA (-PE) MFI: 20285.5
[2]; H929, GSI 1000 nM
  BCMA (-PE) MFI: 21156
[3]; GSI 0.01 nM
  BCMA (-PE) MFI: 15589.5
[3]; GSI 0.1 nM
  BCMA (-PE) MFI: 15775.5
[3]; GSI 1 nM
  BCMA (-PE) MFI: 14396
[3]; GSI 2.5 nM
  BCMA (-PE) MFI: 21412.5
[3]; GSI 5 nM
  BCMA (-PE) MFI: 28832
[3]; GSI 10 nM
  BCMA (-PE) MFI: 31248
[3]; GSI 25 nM
  BCMA (-PE) MFI: 37026.5
[3]; GSI 50 nM
  BCMA (-PE) MFI: 38111
[3]; GSI 100 nM
  BCMA (-PE) MFI: 37582.5
[3]; GSI 500 nM
  BCMA (-PE) MFI: 35780
[3]; GSI 1000 nM
  BCMA (-PE) MFI: 35780
[4]; OPM2, GSI 0.01 nM
  BCMA (-PE) MFI: 2093.5
[4]; OPM2, GSI 0.1 nM
  BCMA (-PE) MFI: 2079.5
[4]; OPM2, GSI 1 nM
  BCMA (-PE) MFI: 2185
[4]; OPM2, GSI 2.5 nM
  BCMA (-PE) MFI: 2358.5
[4]; OPM2, GSI 5 nM
  BCMA (-PE) MFI: 2788.5
[4]; OPM2, GSI 10 nM
  BCMA (-PE) MFI: 3190.5
[4]; OPM2, GSI 25 nM
  BCMA (-PE) MFI: 6575.5
[4]; OPM2, GSI 50 nM
  BCMA (-PE) MFI: 10863
[4]; OPM2, GSI 100 nM
  BCMA (-PE) MFI: 14364
[4]; OPM2, GSI 500 nM
  BCMA (-PE) MFI: 15910.5
[4]; OPM2, GSI 1000 nM
  BCMA (-PE) MFI: 14747.5
[5]; Molp8, GSI 0.01 nM
  BCMA (-PE) MFI: 1191.5
[5]; Molp8, GSI 0.1 nM
  BCMA (-PE) MFI: 1242.5
[5]; Molp8, GSI 1 nM
  BCMA (-PE) MFI: 1288.5
[5]; Molp8, GSI 2.5 nM
  BCMA (-PE) MFI: 1401
[5]; Molp8, GSI 5 nM
  BCMA (-PE) MFI: 1761.5
[5]; Molp8, GSI 10 nM
  BCMA (-PE) MFI: 2183.5
[5]; Molp8, GSI 25 nM
  BCMA (-PE) MFI: 3691
[5]; Molp8, GSI 50 nM
  BCMA (-PE) MFI: 5120
[5]; Molp8, GSI 100 nM
  BCMA (-PE) MFI: 5412
[5]; Molp8, GSI 500 nM
  BCMA (-PE) MFI: 5640.5
[5]; Molp8, GSI 1000 nM
  BCMA (-PE) MFI: 6401

## PF-06863135: heterodimeric humanized full-length bispecific antibody with one BCMA binding arm and one CD3 binding arm
[6]; day 14 post tumor cell inoculation, BCMA × CD3 bispecific 0.3 mg/kg
  Tumor Volume ± SEM: 34.4 ± 9.5 mm^3
[6]; day 14 post tumor cell inoculation, BCMA × CD3 bispecific 1 mg/kg
  Tumor Volume ± SEM: 26.4 ± 7.5 mm^3
[6]; day 18 post tumor cell inoculation, BCMA × CD3 bispecific 0.3 mg/kg
  Tumor Volume ± SEM: 91.6 ± 18 mm^3
[6]; day 18 post tumor cell inoculation, BCMA × CD3 bispecific 1 mg/kg
  Tumor Volume ± SEM: 92 ± 17.1 mm^3
[6]; day 20 post tumor cell inoculation, BCMA × CD3 bispecific 0.3 mg/kg
  Tumor Volume ± SEM: 122.5 ± 20.7 mm^3
[6]; day 20 post tumor cell inoculation, BCMA × CD3 bispecific 1 mg/kg
  Tumor Volume ± SEM: 130.7 ± 24.6 mm^3
[6]; day 25 post tumor cell inoculation, BCMA × CD3 bispecific 0.3 mg/kg
  Tumor Volume ± SEM: 403 ± 59 mm^3
[6]; day 25 post tumor cell inoculation, BCMA × CD3 bispecific 1 mg/kg
  Tumor Volume ± SEM: 601.1 ± 70^ mm^3
[6]; day 28 post tumor cell inoculation, BCMA × CD3 bispecific 0.3 mg/kg
  Tumor Volume ± SEM: 403.3 ± 67.6 mm^3
[6]; day 28 post tumor cell inoculation, BCMA × CD3 bispecific 1 mg/kg
  Tumor Volume ± SEM: 482.9 ± 32.6 mm^3
[6]; day 32 post tumor cell inoculation, BCMA × CD3 bispecific 0.3 mg/kg
  Tumor Volume ± SEM: 603.6 ± 151.6 mm^3
[6]; day 32 post tumor cell inoculation, BCMA × CD3 bispecific 1 mg/kg
  Tumor Volume ± SEM: 410.5 ± 82.7 mm^3
[6]; day 35 post tumor cell inoculation, BCMA × CD3 bispecific 0.3 mg/kg
  Tumor Volume ± SEM: 835.1 ± 77.2 mm^3
[6]; day 35 post tumor cell inoculation, BCMA × CD3 bispecific 1 mg/kg
  Tumor Volume ± SEM: 627.9 ± 111.8 mm^3
[6]; day 39 post tumor cell inoculation, BCMA × CD3 bispecific 0.3 mg/kg
  Tumor Volume ± SEM: 1569.3 ± 151.8 mm^3
[6]; day 39 post tumor cell inoculation, BCMA × CD3 bispecific 1 mg/kg
  Tumor Volume ± SEM: 1436.8 ± 276.4 mm^3
[7]; day 15 post tumor cell inoculation
  Tumor measurements expressed as total flux: 1.513 × 10^7 p/s
[7]; day 18 post tumor cell inoculation
  Tumor measurements expressed as total flux: 8.343 × 10^7 p/s
[7]; day 20 post tumor cell inoculation
  Tumor measurements expressed as total flux: 1.788 × 10^8 p/s
[7]; day 25 post tumor cell inoculation
  Tumor measurements expressed as total flux: 2.2729 × 10^7 p/s
[7]; day 28 post tumor cell inoculation
  Tumor measurements expressed as total flux: 7.082 × 10^7 p/s
[7]; day 32 post tumor cell inoculation
  Tumor measurements expressed as total flux: 7.076 × 10^7 p/s
